Data on 21 molecules can be found in patent publication US20260297070A1, “CYCLIC [COMPOUND LEFT OUT] WRN INHIBITORS” (Nimbus Wadjet, Inc., priority 2023, published 2026).

Structures are written as SMILES.

The assay addresses T1, human Werner helicase (WRN-BV08, Uniprot Q14191, amino acids 517-1235 with L1074F point mutation) (Homo sapiens, UniProt Q14191, L1074F).
T1 construct: Uniprot Q14191, amino acids 517-1235 with L1074F point mutation; TEV-cleavable 8×His (C, cleaved yes); made in house; host or cells: Sf9 insect cells (baculovirus)
The assay is described as follows: WRN (BV08) ADP-Glo Assay. The assay is classed as biochemical. The following applies: 0.15 nM WRN, 5 μM ATP, 0.1 nM DNA duplex, 15 min preincubation, 60 min at 25° C., pH 7.5, 1% DMSO; read-out: ADP-Glo_hWRN_IC50. The essentials: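 ADP produced by WRN helicase fragment 517-1235 (L1074F, baculovirus/Sf9, untagged) read by ADP-Glo luminescence after 60 min at 25 °C with 5 μM ATP and 0.1 nM duplex DNA, following 15 min compound preincubation. Final enzyme 0.15 nM in Bicine pH 7.5 buffer, 1% DMSO; 20 μM NSC-617145 defined full inhibition.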

T1 sequence (Q14191 with tags, fused parts or gaps L1074F limits assumed): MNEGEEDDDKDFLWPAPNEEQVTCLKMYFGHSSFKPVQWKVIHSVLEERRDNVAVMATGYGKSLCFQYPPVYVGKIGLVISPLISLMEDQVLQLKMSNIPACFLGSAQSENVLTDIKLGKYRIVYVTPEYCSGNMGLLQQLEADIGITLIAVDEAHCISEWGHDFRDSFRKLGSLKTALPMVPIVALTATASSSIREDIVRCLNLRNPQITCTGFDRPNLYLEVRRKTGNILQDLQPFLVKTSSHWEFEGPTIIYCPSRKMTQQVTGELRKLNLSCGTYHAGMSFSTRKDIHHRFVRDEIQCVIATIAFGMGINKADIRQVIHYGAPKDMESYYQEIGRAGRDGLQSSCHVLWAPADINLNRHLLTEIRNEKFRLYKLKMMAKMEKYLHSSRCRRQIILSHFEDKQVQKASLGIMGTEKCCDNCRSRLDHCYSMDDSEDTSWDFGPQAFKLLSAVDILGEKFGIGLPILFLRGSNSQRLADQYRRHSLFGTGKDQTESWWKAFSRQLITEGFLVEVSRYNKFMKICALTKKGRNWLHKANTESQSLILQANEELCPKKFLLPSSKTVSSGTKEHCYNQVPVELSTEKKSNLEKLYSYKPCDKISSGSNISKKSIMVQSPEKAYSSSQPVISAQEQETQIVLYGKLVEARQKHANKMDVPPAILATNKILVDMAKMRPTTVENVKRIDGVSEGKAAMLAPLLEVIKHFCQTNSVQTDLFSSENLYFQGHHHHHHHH

With `COc1cc(CN(C(=O)Cc2ccc(C3(C)CC3)cc2F)C2C=CS(=O)(=O)C2)ccn1` (stereo not drawn) [I-97, N-(1,1-dioxo-2,3-dihydro-1lambda6-thiophen-3-yl)-2-[2-fluoro-4-(1-methylcyclopropyl)phenyl]-N-[(2-methoxypyridin-4-yl)methyl]acetamide], the IC50 fell in the range of 0.5 to 5 µM.

On to `COC(C(=O)N(Cc1ccncc1)C1C=CS(=O)(=O)C1)c1ccc(-c2ccc(F)cc2)cc1` (single isomer, unassigned) [I-72, (2R*)-N-[(3R**)-1,1-dioxo-2,3-dihydro-1lambda6-thiophen-3-yl]-2-{4′-fluoro-[1,1′-biphenyl]-4-yl}-2-methoxy-N-[(pyridin-4-yl)methyl]acetamide], for which the IC50 was under 0.5 µM. Then `CC(F)(F)c1csc(CN(C(=O)Cc2ccc(S(F)(F)(F)(F)F)cc2)C2C=CS(=O)(=O)C2)n1` (stereo not drawn) [I-625, N-{[4-(1,1-difluoroethyl)-1,3-thiazol-2-yl]methyl}-N-(1,1-dioxo-2,3-dihydro-1lambda6-thiophen-3-yl)-2-[4-(pentafluoro-lambda6-sulfanyl)phenyl]acetamide], with under 0.5 µM; and `O=C(C1CC(Cc2ccccc2)=NO1)N(Cc1ccncc1)C1C=CS(=O)(=O)C1` (stereo not drawn) [I-579, 3-benzyl-N-(1,1-dioxo-2,3-dihydro-1lambda6-thiophen-3-yl)-N-[(pyridin-4-yl)methyl]-4,5-dihydro-1,2-oxazole-5-carboxamide], with over 50 µM; and `Cc1cccn1-c1ccc(CC(=O)N(Cc2ccnc3c2CCO3)C2C=CS(=O)(=O)C2)c(F)c1` (stereo not drawn) [I-179, N-(1,1-dioxo-2,3-dihydro-1lambda6-thiophen-3-yl)-2-[2-fluoro-4-(2-methyl-1H-pyrrol-1-yl)phenyl]-N-({2H,3H-furo[2,3-b]pyridin-4-yl}methyl)acetamide], with 0.5 to 5 µM. Under `COc1cc(CN(C(=O)C(OCC2CCCN(S(C)(=O)=O)C2)c2ccc(-c3ccc(F)c(F)c3)cc2F)[C@@H]2C=CS(=O)(=O)C2)ccn1` (stereo partly drawn) [I-809, N-[(3R)-1,1-dioxo-2,3-dihydro-1lambda6-thiophen-3-yl]-2-[(1-methanesulfonylpiperidin-3-yl)methoxy]-N-[(2-methoxypyridin-4-yl)methyl]-2-{3,3′,4′-trifluoro-[1,1′-biphenyl]-4-yl}acetamide] stands 0.5 to 5 µM; under `COCc1cc(CN(C(=O)Cc2ccc(-n3cccc3C)cc2F)C2C=CS(=O)(=O)C2)ccn1` (stereo not drawn) [I-118, N-(1,1-dioxo-2,3-dihydro-1lambda6-thiophen-3-yl)-2-[2-fluoro-4-(2-methyl-1H-pyrrol-1-yl)phenyl]-N-{[2-(methoxymethyl)pyridin-4-yl]methyl}acetamide], 0.5 to 5 µM; under `COCC(C(=O)N(Cc1ccnc(OC)c1)C1C=CS(=O)(=O)C1)n1cc(-c2ccccc2)cn1` (stereo not drawn) [I-357, N-(1,1-dioxo-2,3-dihydro-1lambda6-thiophen-3-yl)-3-methoxy-N-[(2-methoxypyridin-4-yl)methyl]-2-(4-phenyl-1H-pyrazol-1-yl)propanamide], 10 to 50 µM. Then `O=C(Cc1ccc(-n2cccc2)c(F)c1)N(Cc1ccncc1)C1C=CS(=O)(=O)C1` (stereo not drawn) [I-327, N-(1,1-dioxo-2,3-dihydro-1lambda6-thiophen-3-yl)-2-[3-fluoro-4-(1H-pyrrol-1-yl)phenyl]-N-[(pyridin-4-yl)methyl]acetamide], with 10 to 50 µM; and `O=C1Nc2ccccc2C1CCC(=O)N(Cc1ccncc1)C1C=CS(=O)(=O)C1` (stereo not drawn) [I-585, N-(1,1-dioxo-2,3-dihydro-1lambda6-thiophen-3-yl)-3-(2-oxo-2,3-dihydro-1H-indol-3-yl)-N-[(pyridin-4-yl)methyl]propanamide], with over 50 µM; and `O=C(Cc1ccc(-n2cccc2)cc1)N(Cc1ccccc1)C1C=C(CO)S(=O)(=O)C1` (stereo not drawn) [I-373, N-benzyl-N-[5-(hydroxymethyl)-1,1-dioxo-2,3-dihydro-1lambda6-thiophen-3-yl]-2-[4-(1H-pyrrol-1-yl)phenyl]acetamide], with over 50 µM.

Take `COc1cc(CN(C(=O)Cc2ccc(S(F)(F)(F)(F)F)cc2)[C@H]2C=CS(=O)(=O)C2)ccn1` [I-311, N-[(3S)-1,1-dioxo-2,3-dihydro-1lambda6-thiophen-3-yl]-N-[(2-methoxypyridin-4-yl)methyl]-2-[4-(pentafluoro-lambda6-sulfanyl)phenyl]acetamide]: the IC50 was over 50 µM.

For the molecule `O=C(Cc1ccc(-n2cccc2)cc1)N(Cc1nc2c(s1)COCC2)C1C=CS(=O)(=O)C1` (stereo not drawn) [I-178, N-(1,1-dioxo-2,3-dihydro-1lambda6-thiophen-3-yl)-N-({4H,6H,7H-pyrano[4,3-d][1,3]thiazol-2-yl}methyl)-2-[4-(1H-pyrrol-1-yl)phenyl]acetamide], the IC50 was 0.5 to 5 µM. Then `Cc1cc(-c2ccc(F)cc2)ccc1CC(=O)N(Cc1ccncc1)C1C=CS(=O)(=O)C1` (stereo not drawn) [I-227, N-(1,1-dioxo-2,3-dihydro-1lambda6-thiophen-3-yl)-2-{4′-fluoro-3-methyl-[1,1′-biphenyl]-4-yl}-N-[(pyridin-4-yl)methyl]acetamide], with 5 to 10 µM. Then `Cc1cnc(CN(C(=O)Cc2ccc(-n3cccc3)cc2)C2C=CS(=O)(=O)C2)s1` (stereo not drawn) [I-274, N-(1,1-dioxo-2,3-dihydro-1lambda6-thiophen-3-yl)-N-[(5-methyl-1,3-thiazol-2-yl)methyl]-2-[4-(1H-pyrrol-1-yl)phenyl]acetamide], with 5 to 10 µM; and `COc1cc(CN(C(=O)Cn2cc(-c3ccc(Cl)cc3)cn2)C2C=CS(=O)(=O)C2)ccn1` (stereo not drawn) [I-85, 2-[4-(4-chlorophenyl)-1H-pyrazol-1-yl]-N-(1,1-dioxo-2,3-dihydro-1lambda6-thiophen-3-yl)-N-[(2-methoxypyridin-4-yl)methyl]acetamide], with under 0.5 µM. Under `COC(C(=O)N(Cc1ccnc(C(C)(C)O)c1)C1C=CS(=O)(=O)C1)c1ccc(-c2ccc(F)c(F)c2)cc1F` (single isomer, unassigned) [I-578, (2R*)-N-[(3R**)-1,1-dioxo-2,3-dihydro-1lambda6-thiophen-3-yl]-N-{[2-(2-hydroxypropan-2-yl)pyridin-4-yl]methyl}-2-methoxy-2-{3,3′,4′-trifluoro-[1,1′-biphenyl]-4-yl}acetamide] stands 10 to 50 µM; under `O=C(Cn1cc(Br)cn1)N(Cc1ccncc1)C1C=CS(=O)(=O)C1` (stereo not drawn) [I-408, 2-(4-bromo-1H-pyrazol-1-yl)-N-(1,1-dioxo-2,3-dihydro-1lambda6-thiophen-3-yl)-N-[(pyridin-4-yl)methyl]acetamide], over 50 µM; under `NC(=O)c1cccc(CN(C(=O)Cc2ccc(-n3cccc3)cc2)C2C=CS(=O)(=O)C2)c1` (stereo not drawn) [I-318, 3-{[N-(1,1-dioxo-2,3-dihydro-1lambda6-thiophen-3-yl)-2-[4-(1H-pyrrol-1-yl)phenyl]acetamido]methyl}benzamide], 10 to 50 µM.

Consider `COc1cc(CN(C(=O)C(C(=O)N(C)C)c2ccc(-c3ccc(F)cc3)cc2F)C2C=CS(=O)(=O)C2)ccn1` (stereo not drawn) [I-46, 2-{3,4′-difluoro-[1,1′-biphenyl]-4-yl}-N-(1,1-dioxo-2,3-dihydro-1lambda6-thiophen-3-yl)-N-[(2-methoxypyridin-4-yl)methyl]-N′,N′-dimethylpropanediamide], for which the IC50 is under 0.5 µM. For `O=C(Cc1ccc(-c2cccc(F)c2F)cc1)N(Cc1ccncc1)C1C=CS(=O)(=O)C1` (stereo not drawn) [I-261, 2-{2′,3′-difluoro-[1,1′-biphenyl]-4-yl}-N-(1,1-dioxo-2,3-dihydro-1lambda6-thiophen-3-yl)-N-[(pyridin-4-yl)methyl]acetamide], the IC50 was in the range of 5 to 10 µM.
